Our source for the carcinogen call values is PubChem BioAssay AID1259411 (Chemical Carcinogenesis Research Information System (CCRIS), 2018).

Active and inactive are the calls of the source. No rule for the calls is given here.

In the series the test system is rodent carcinogenicity bioassays, tumor incidence. Briefly: CCRIS carcinogenicity studies. The procedure, abridged: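 Archive of carcinogenicity, mutagenicity, tumor promotion and tumor inhibition results drawn from journals, NCI reports and other sources, expert-reviewed; covers 1985-2011 and is no longer updated.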

Turning to `O[C@H]1C=Cc2c(cc3ccc4cccc5ccc2c3c45)[C@@H]1O`, the carcinogen call was “active; positive” (Species: FISH, Strain/Sex: RAINBOW TROUT/MALE,FEMALE, Route: INJECTION, Dose: 0, 0.01, 1 UG INJECTED INTO NEWLY HATCHED SAC-FRY ONCE (STUDY DURATION: 9 MO), Dose: 0, 0.01, 1 UG INJECTED INTO NEWLY HATCHED SAC-FRY ONCE (STUDY DURATION: 9 MO), Tumor Site: Type of Lesion: LIVER: TUMOR); “active; positive” (Species: FISH, Strain/Sex: RAINBOW TROUT/MALE,FEMALE, Route: INJECTION, Dose: 0, 0.5, 2, 5 UG INJECTED INTO NEWLY HATCHED SAC-FRY (STUDY DURATION: 9 MO), Dose: 0, 0.5, 2, 5 UG INJECTED INTO NEWLY HATCHED SAC-FRY (STUDY DURATION: 9 MO), Tumor Site: Type of Lesion: LIVER: TUMOR); “active; positive” (Species: MOUSE, Strain/Sex: C57BL/FEMALE, Route: DERMAL, Dose: 0.15, 0.30 UMOL IN ACETONE/NH4OH (1000:1) EVERY 2 WK FOR 60 WK, Tumor Site: Type of Lesion: INTEGUMENTARY SYSTEM (SKIN): SQUAMOUS CELL CARCINOMA); “active; positive” (Species: MOUSE, Strain/Sex: SWISS/MALE,FEMALE, Route: INTRAPERITONEAL, Dose: 200 NMOL ON FIRST D OF LIFE, 400 NMOL ON D 8, 800 NMOL ON D 15, Tumor Site: Type of Lesion: LUNG: ADENOMA, HEMATOPOIETIC SYSTEM (LEUKEMIA), LYMPHATIC SYSTEM: MALIGNANT LYMPHOMA, Tumor Site: Type of Lesion: LUNG: ADENOMA, HEMATOPOIETIC SYSTEM (LEUKEMIA), LYMPHATIC SYSTEM: MALIGNANT LYMPHOMA).
Turning to `CC1=C[C@H]2O[C@@H]3[C@H](O)C[C@](C)([C@@]2(CO)[C@H](O)C1=O)[C@]31CO1`, the carcinogen call (Species: MOUSE, Strain/Sex: B6C3F1/FEMALE, Route: ORAL, Dose: 0, 1, 5, 10 PPM IN DIET FOR 2 YR (STUDY DURATION: 2 YR), Dose: 0, 1, 5, 10 PPM IN DIET FOR 2 YR (STUDY DURATION: 2 YR)) is “inactive; negative” and the carcinogen call (Species: MOUSE, Strain/Sex: B6C3F1/MALE, Route: ORAL, Dose: 0, 1, 5, 10 PPM IN DIET FOR 2 YR (STUDY DURATION: 2 YR), Dose: 0, 1, 5, 10 PPM IN DIET FOR 2 YR (STUDY DURATION: 2 YR)) was “inactive; negative”.
In the case of `COc1cc(S(=O)(=O)O)c(C)cc1N=Nc1c(O)ccc2cc(S(=O)(=O)O)ccc12`, the carcinogen call is “inactive; negative” (Species: MOUSE, Strain/Sex: CD-1/FEMALE, Route: ORAL, Dose: 0, 0.37, 1.39, 5.19% IN DIET FOR LIFE TO OFFSPRING OF ANIMALS ADMINISTERED THE SAME DOSES DURING BREEDING, GESTATION AND, Dose: 0, 0.37, 1.39, 5.19% IN DIET FOR LIFE TO OFFSPRING OF ANIMALS ADMINISTERED THE SAME DOSES DURING BREEDING, GESTATION AND); “inactive; negative” (Species: MOUSE, Strain/Sex: CD-1/MALE, Route: ORAL, Dose: 0, 0.37, 1.39, 5.19% IN DIET FOR LIFE TO OFFSPRING OF ANIMALS ADMINISTERED THE SAME DOSES DURING BREEDING, GESTATION AND, Dose: 0, 0.37, 1.39, 5.19% IN DIET FOR LIFE TO OFFSPRING OF ANIMALS ADMINISTERED THE SAME DOSES DURING BREEDING, GESTATION AND); “inactive; negative” (Species: MOUSE, Strain/Sex: HAM/ICR/FEMALE, Route: ORAL, Dose: 0, 0.37, 1.39, 5.19% IN DIET FOR LIFE TO OFFSPRING OF ANIMALS ADMINISTERED THE SAME DOSES DURING BREEDING, GESTATION AND, Dose: 0, 0.37, 1.39, 5.19% IN DIET FOR LIFE TO OFFSPRING OF ANIMALS ADMINISTERED THE SAME DOSES DURING BREEDING, GESTATION AND); “inactive; negative” (Species: MOUSE, Strain/Sex: HAM/ICR/MALE, Route: ORAL, Dose: 0, 0.37, 1.39, 5.19% IN DIET FOR LIFE TO OFFSPRING OF ANIMALS ADMINISTERED THE SAME DOSES DURING BREEDING, GESTATION AND, Dose: 0, 0.37, 1.39, 5.19% IN DIET FOR LIFE TO OFFSPRING OF ANIMALS ADMINISTERED THE SAME DOSES DURING BREEDING, GESTATION AND); “inactive; negative” (Species: RAT, Strain/Sex: SPRAGUE-DAWLEY/FEMALE, Route: ORAL, Dose: 0, 0.37, 1.39, 5.19% OF DIET BEGINNING WITH PARENTAL GENERATION AND CONTINUING WITH THE OFFSPRING FOLLOWING WEANING (STU, Dose: 0, 0.37, 1.39, 5.19% OF DIET BEGINNING WITH PARENTAL GENERATION AND CONTINUING WITH THE OFFSPRING FOLLOWING WEANING (STU); “inactive; negative” (Species: RAT, Strain/Sex: SPRAGUE-DAWLEY/MALE, Route: ORAL, Dose: 0, 0.37, 1.39, 5.19% OF DIET BEGINNING WITH PARENTAL GENERATION AND CONTINUING WITH THE PUPS FOLLOWING WEANING (STUDY DU, Dose: 0, 0.37, 1.39, 5.19% OF DIET BEGINNING WITH PARENTAL GENERATION AND CONTINUING WITH THE PUPS FOLLOWING WEANING (STUDY DU).
Regarding `CN(N=O)C(CCC(=O)O)c1cccnc1` (centres undefined), the carcinogen call by setting is: (Species: MOUSE, Strain/Sex: STRAIN-A/FEMALE, Route: INTRAPERITONEAL, Dose: 0, 2.23 MG 3/WK FOR 20 WK (STUDY DURATION: 50 WK)) “inactive; negative”; (Species: MOUSE, Strain/Sex: STRAIN-A/FEMALE, Route: INTRAPERITONEAL, Dose: 0, 200 UMOL MOUSE (TOTAL DOSE) ADMINISTERED IN 0.1 ML SALINE 3/WK (TOTAL 20 INJECTIONS) (STUDY DURATION: 37 WK)) “inactive; negative”; (Species: MOUSE, Strain/Sex: STRAIN-A/FEMALE, Route: INTRAPERITONEAL, Dose: 0, 200 UMOL TOTAL DOSE ADMINISTERED IN SUBDOSES 3/WK FOR 7 WK (STUDY DURATION: 37 WK)) “inactive; negative”.
As for `CN(N=O)C(=O)NCCC[C@H](N)C(=O)O`, the carcinogen call is, setting by setting: (Species: HAMSTER, Strain/Sex: SYRIAN/FEMALE, Route: INTRAPERITONEAL, Dose: 218, 654 MG/KG 1/WK FOR 12 WK (LOW DOSE) OR 6 WK (HIGH DOSE), Tumor Site: Type of Lesion: PANCREAS: CARCINOMA, CARCINOMA (IN SITU), PERITONEAL CAVITY: MESOTHELIOMA;MAMMARY GLAND: CARCINOMA, STOMACH: PAPILLOMA,, Tumor Site: Type of Lesion: PANCREAS: CARCINOMA, CARCINOMA (IN SITU), PERITONEAL CAVITY: MESOTHELIOMA;MAMMARY GLAND: CARCINOMA, STOMACH: PAPILLOMA) “active; positive”; (Species: HAMSTER, Strain/Sex: SYRIAN/MALE, Route: INTRAPERITONEAL, Dose: 218, 654 MG/KG 1/WK FOR 12 WK (LOW DOSE) OR 6 WK (HIGH DOSE), Tumor Site: Type of Lesion: PANCREAS: CARCINOMA, CARCINOMA (IN SITU), STOMACH: PAPILLOMA) “active; positive”.
On to `O=P1(O)OP(=O)(O)OP(=O)(O)O1`, for which the carcinogen call by setting is: (Species: RAT, Strain/Sex: F344/FEMALE, Route: ORAL, Dose: 0, 1.5, 3% IN DIET FOR DURATION OF STUDY (STUDY DURATION: 108 WK), Dose: 0, 1.5, 3% IN DIET FOR DURATION OF STUDY (STUDY DURATION: 108 WK)) “inactive; negative”; (Species: RAT, Strain/Sex: F344/MALE, Route: ORAL, Dose: 0, 1.5, 3% IN DIET FOR DURATION OF STUDY (STUDY DURATION: 108 WK), Dose: 0, 1.5, 3% IN DIET FOR DURATION OF STUDY (STUDY DURATION: 108 WK)) “inactive; negative”.
On to `ONc1ccc2ccccc2c1`, for which the carcinogen call by setting is: (Species: DOG, Strain/Sex: BEAGLE, Route: INTRAVESICULAR, Dose: 5 MG IN DMSO EVERY TWO WK FOR 30 MO, Tumor Site: Type of Lesion: URINARY BLADDER: PAPILLARY TRANSITIONAL CELL CARCINOMA (INVASIVE)) “active; positive”; (Species: MOUSE, Strain/Sex: BALB, Route: SUBCUTANEOUS, Dose: 100 UG IN AQUEOUS GELATIN 1/D FOR 5 D, Tumor Site: Type of Lesion: LUNG: ADENOMA) “active; positive”; (Species: MOUSE, Strain/Sex: SWISS/FEMALE, Route: SUBCUTANEOUS, Dose: 100 UG IN GELATIN ON D 1, 3 AND 5 OF LIFE, Tumor Site: Type of Lesion: LUNG: ADENOMA, CARCINOMA) “active; positive”; (Species: MOUSE, Strain/Sex: SWISS/MALE, Route: SUBCUTANEOUS, Dose: 100 UG IN GELATIN ON D 1, 3 AND 5 OF LIFE, Tumor Site: Type of Lesion: LIVER: HEPATOMA) “active; positive”; (Species: RAT, Strain/Sex: STRAIN-CB/MALE, Route: INTRAPERITONEAL, Dose: 50 MG/KG IN ARACHIS OIL 2/WK FOR 3 MO, Tumor Site: Type of Lesion: PERITONEAL CAVITY: SARCOMA, CARCINOMA) “active; positive”.
